Source: patent US20100254902A1, “STABILIZATION OF RADIOPHARMACEUTICALS” (priority 2008, published 2010)

Assay: Radiochemical purity (RCP) of [^18F]FDG composition by TLC, stability testing
Experimental: Radiochemical purity of [^18F]FDG composition samples was determined at end of synthesis (EOS) and at Expiry i.e. after 10 hours storage at 22° C.±3° C. to determine stability of the composition.
To a series of vials was added an amount of stabilizer dissolved in Buffer.
At EOS (within 2 hours), a 100-fold dilution of the test solution was prepared by addition of a 10 μl sample to a 990 μl volume of water for injection. After mixing, a 2 μl sample was applied to a TLC strip.
At 10 hours after synthesis, a 10-fold dilution was made by addition of a 20 μl sample to a 180 μl volume of water for injection. After mixing, a 3 μl sample was applied to a TLC strip.
Within 1 to 3 hours after manufacture, radiochemical purity (RCP) was determined by TLC. The vials were stored at 22° C.±3° C. and at 10 hours after synthesis, RCP was again determined by TLC.

| Compound | stabilising effect on [^18F]FDG composition (conclusion) (Example 1, additives 2.5-20 mg/ml acetone or ethanol, 3-6 mg/ml gentisic acid) | RCP at EOS+10 h, difference GA versus ethanol (Example 5, vial 6 versus vial 5) [%] | stabiliser quality compared with ethanol (conclusion) (Example 5, vial 6 versus vial 5, approximately 2 mg/ml stabilizer) | effect of increasing amounts of gentisic acid on stabilisation of [^18F]FDG (Examples 2-4, batches <50 GBq at EOS, ranges 0.1-0.5, 0.5-1 and 1-2 mg/ml) |
| --- | --- | --- | --- | --- |
| CC(C)=O [Acetone, reference compound] | slight stabilising effect | – | – | – |
| O=C(O)c1cc(O)ccc1O [gentisic acid, 2,5-dihydroxybenzoic acid] | – | 1 | better stabiliser than ethanol | the higher amount was found to be more effective |
